Data published in patent US9833497B2, “Human originated EGF domain proteins and use of the same” (CHENGDU SOURCEBIO LIMITED-LIABILITY COMPANY, priority 2013, dated 2017).

Assays:
Type in all cases: cell-based
E. coli DH5α = experiment: Antibacterial activity: MIC and growth curve against E. coli DH5α in 96-well plate; conditions: minimal inhibitory concentration against E. coli DH5α; 96-well plate, 5×10^5 CFU/mL, 37° C., judged after 8 h
Outline: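 Log-phase bacteria (OD600 ~0.5) resuspended in LB at 5×10^5 CFU/mL, exposed to recombinant protein at 50, 25, 12.5 μg/mL final in triplicate, 37 °C shaking at 175 rpm. OD600 read every 30 min; MIC is lowest concentration showing no growth.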

E. coli BL21 = experiment: MIC against Gram-negative bacteria: E. coli BL21; conditions: 5×10^5 CFU/mL
Outline: (§1)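 Read-out is absence of bacterial growth, with MIC set at the lowest recombinant protein concentration achieving it. Bacteria, pre-grown in LB to McFarland 0.5 and resuspended, were exposed at 5×10^5 CFU/mL to two-fold diluted human EGF domain proteins in triplicate at 37° C, 175 rpm.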

Pseudomonas aeruginosa = experiment: MIC against Gram-negative bacteria: Pseudomonas aeruginosa; conditions: 5×10^5 CFU/mL
Outline: as §1

Klebsiella pneumonia = experiment: MIC against Gram-negative bacteria: Klebsiella pneumonia; conditions: 5×10^5 CFU/mL
Outline: as §1

Enterobacter cloacae = experiment: MIC against Gram-negative bacteria: Enterobacter cloacae; conditions: 5×10^5 CFU/mL
Outline: as §1

Aeromonas hydrophila = experiment: MIC against Gram-negative bacteria: Aeromonas hydrophila; conditions: 5×10^5 CFU/mL
Outline: as §1

Citrobacter diversus = experiment: MIC against Gram-negative bacteria: Citrobacter diversus; conditions: 5×10^5 CFU/mL
Outline: as §1

Moraxella catarrhalis = experiment: MIC against Gram-negative bacteria: Moraxella catarrhalis; conditions: 5×10^5 CFU/mL
Outline: as §1

Proteus mirabilis = experiment: MIC against Gram-negative bacteria: Proteus mirabilis; conditions: 5×10^5 CFU/mL
Outline: as §1

Proteus vulgaris = experiment: MIC against Gram-negative bacteria: Proteus vulgaris; conditions: 5×10^5 CFU/mL
Outline: as §1

Serratia marcescens = experiment: MIC against Gram-negative bacteria: Serratia marcescens; conditions: 5×10^5 CFU/mL
Outline: as §1

[1] = E. coli BL21, 10 h cultivation at 37° C.
[2] = E. coli BL21, 96-well plate, 37° C., 10 h
[3] = Pseudomonas aeruginosa, 96-well plate, 37° C., 10 h
[4] = Klebsiella pneumonia, 96-well plate, 37° C., 10 h
[5] = Enterobacter cloacae, 96-well plate, 37° C., 10 h
[6] = Aeromonas hydrophila, 96-well plate, 37° C., 10 h
[7] = Citrobacter diversus, 96-well plate, 37° C., 10 h
[8] = Moraxella catarrhalis, 96-well plate, 37° C., 10 h
[9] = Proteus mirabilis, 96-well plate, 37° C., 10 h
[10] = Proteus vulgaris, 96-well plate, 37° C., 10 h
[11] = Serratia marcescens, 96-well plate, 37° C., 10 h
[12] = 10 h cultivation at 37° C., two-fold serial dilution

With “PRT801 (FGYGCQQLCECMNNSTCDHVTGTCYCSPGFKGIRCD; listed as Homo sapiens)” as the substance, how does the MIC (E. coli DH5α) read?
The MIC was 25 µg/mL.

What about the “MIC (μg/mL) E. coli BL21” value (E. coli BL21; [1]) of the same substance?
Its value is 12.5 µg/mL.

And the “MIC (μg/mL) P. aeruginosa” value (Pseudomonas aeruginosa; P. aeruginosa, 10 h cultivation at 37° C.)?
Its value is 50 µg/mL.

And the “MIC (μg/mL) K. pneumonia” value (Klebsiella pneumonia; K. pneumonia, 10 h cultivation at 37° C.)?
The value was 25 µg/mL.

And the “MIC (μg/mL) E. cloacae” value (Enterobacter cloacae; E. cloacae, 10 h cultivation at 37° C.)?
Its value is 12.5 µg/mL.

What about the “MIC (μg/mL) A. hydrophila” value (Aeromonas hydrophila; A. hydrophila, 10 h cultivation at 37° C.) of the same substance?
Its value is 25 µg/mL.

What about the “MIC (μg/mL) C. diversus” value (Citrobacter diversus; C. diversus, 10 h cultivation at 37° C.) of the same substance?
Its value is 12.5 µg/mL.

And the “MIC (μg/mL) M. catarrhalis” value (Moraxella catarrhalis; M. catarrhalis, 10 h cultivation at 37° C.)?
Its value is 12.5 µg/mL.

What about the “MIC (μg/mL) P. mirabilis” value (Proteus mirabilis; P. mirabilis, 10 h cultivation at 37° C.) of the same substance?
The value was 12.5 µg/mL.

And the “MIC (μg/mL) P. vulgaris” value (Proteus vulgaris; P. vulgaris, 10 h cultivation at 37° C.)?
Its value is 12.5 µg/mL.

And the “MIC (μg/mL) S. marcescens” value (Serratia marcescens; S. marcescens, 10 h cultivation at 37° C.)?
The value was 12.5 µg/mL.

With “PRT2 (DQLICVNENGGCEQYCSDHTGTKRSCRCHEGYSLLADGVSCT; listed as Homo sapiens)” as the substance, how does the MIC (E. coli DH5α) read?
The MIC was 25 µg/mL.

And the “MIC (μg/mL) E. coli BL21” value (E. coli BL21; [2])?
The value was 50 µg/mL.

And the “MIC (μg/mL) P. aeruginosa” value (Pseudomonas aeruginosa; [3])?
The value was 50 µg/mL.

And the “MIC (μg/mL) K. pneumonia” value (Klebsiella pneumonia; [4])?
Its value is 50 µg/mL.

And the “MIC (μg/mL) E. cloacae” value (Enterobacter cloacae; [5])?
Its value is 25 µg/mL.

What about the “MIC (μg/mL) A. hydrophila” value (Aeromonas hydrophila; [6]) of the same substance?
Its value is 25 µg/mL.

What about the “MIC (μg/mL) C. diversus” value (Citrobacter diversus; [7]) of the same substance?
The value was 25 µg/mL.

And the “MIC (μg/mL) M. catarrhalis” value (Moraxella catarrhalis; [8])?
Its value is 12.5 µg/mL.

And the “MIC (μg/mL) P. mirabilis” value (Proteus mirabilis; [9])?
The value was 25 µg/mL.

What about the “MIC (μg/mL) P. vulgaris” value (Proteus vulgaris; [10]) of the same substance?
Its value is 12.5 µg/mL.

What about the “MIC (μg/mL) S. marcescens” value (Serratia marcescens; [11]) of the same substance?
Its value is 12.5 µg/mL.

Which MIC (E. coli DH5α) does the source give for “PRT41 (CDRPCVNGGRCNPGTGQCVCPAGWVGEQC; listed as Homo sapiens)” here?
The MIC was 25 µg/mL.

And the “MIC (μg/mL) E. coli BL21” value (E. coli BL21; [2])?
The value was 12.5 µg/mL.

And the “MIC (μg/mL) P. aeruginosa” value (Pseudomonas aeruginosa; [3])?
Its value is 25 µg/mL.

And the “MIC (μg/mL) K. pneumonia” value (Klebsiella pneumonia; [4])?
Its value is 12.5 µg/mL.

What about the “MIC (μg/mL) E. cloacae” value (Enterobacter cloacae; [5]) of the same substance?
Its value is 25 µg/mL.

And the “MIC (μg/mL) A. hydrophila” value (Aeromonas hydrophila; [6])?
Its value is 12.5 µg/mL.

What about the “MIC (μg/mL) C. diversus” value (Citrobacter diversus; [7]) of the same substance?
Its value is 25 µg/mL.

And the “MIC (μg/mL) M. catarrhalis” value (Moraxella catarrhalis; [8])?
Its value is 12.5 µg/mL.

What about the “MIC (μg/mL) P. mirabilis” value (Proteus mirabilis; [9]) of the same substance?
Its value is 25 µg/mL.

And the “MIC (μg/mL) P. vulgaris” value (Proteus vulgaris; [10])?
The value was 12.5 µg/mL.

And the “MIC (μg/mL) S. marcescens” value (Serratia marcescens; [11])?
The value was 50 µg/mL.

“PRT1114 (PSKECSLNVTCLDGSPCEGGSPAANCSCLEGLAGQRCQ; listed as Homo sapiens)” was tested. Which MIC (E. coli DH5α) did it give?
Its MIC is 25 µg/mL.

And the “MIC E. coli BL21” value (E. coli BL21; [12])?
Its value is 12.5 µg/mL.

And the “MIC P. aeruginosa” value (Pseudomonas aeruginosa; [12])?
Its value is 25 µg/mL.

And the “MIC K. pneumonia” value (Klebsiella pneumonia; [12])?
The value was 50 µg/mL.

What about the “MIC E. cloacae” value (Enterobacter cloacae; [12]) of the same substance?
The value was 25 µg/mL.

And the “MIC A. hydrophila” value (Aeromonas hydrophila; [12])?
The value was 25 µg/mL.

And the “MIC C. diversus” value (Citrobacter diversus; [12])?
Its value is 12.5 µg/mL.

What about the “MIC M. catarrhalis” value (Moraxella catarrhalis; [12]) of the same substance?
Its value is 25 µg/mL.

What about the “MIC P. mirabilis” value (Proteus mirabilis; [12]) of the same substance?
The value was 50 µg/mL.

What about the “MIC P. vulgaris” value (Proteus vulgaris; [12]) of the same substance?
Its value is 25 µg/mL.

What about the “MIC S. marcescens” value (Serratia marcescens; [12]) of the same substance?
The value was 12.5 µg/mL.

For “PRT607 (CDCHPEGSLSLQCKDDGRCECREGFVGNRCDQCEENYFYNRSWPGCQE; listed as Homo sapiens)”, which MIC (E. coli DH5α) is on record?
Its MIC is 50 µg/mL.

And the “MIC E. coli BL21” value (E. coli BL21; 96-well plate, 37° C., 10 h)?
Its value is 25 µg/mL.

And the “MIC P. aeruginosa” value (Pseudomonas aeruginosa; 96-well plate, 37° C., 10 h)?
Its value is 12.5 µg/mL.

What about the “MIC K. pneumonia” value (Klebsiella pneumonia; 96-well plate, 37° C., 10 h) of the same substance?
Its value is 25 µg/mL.

And the “MIC E. cloacae” value (Enterobacter cloacae; 96-well plate, 37° C., 10 h)?
Its value is 50 µg/mL.

What about the “MIC A. hydrophila” value (Aeromonas hydrophila; 96-well plate, 37° C., 10 h) of the same substance?
The value was 12.5 µg/mL.

And the “MIC C. diversus” value (Citrobacter diversus; 96-well plate, 37° C., 10 h)?
The value was 50 µg/mL.

And the “MIC M. catarrhalis” value (Moraxella catarrhalis; 96-well plate, 37° C., 10 h)?
The value was 12.5 µg/mL.

And the “MIC P. mirabilis” value (Proteus mirabilis; 96-well plate, 37° C., 10 h)?
The value was 50 µg/mL.

What about the “MIC P. vulgaris” value (Proteus vulgaris; 96-well plate, 37° C., 10 h) of the same substance?
The value was 12.5 µg/mL.

And the “MIC S. marcescens” value (Serratia marcescens; 96-well plate, 37° C., 10 h)?
Its value is 50 µg/mL.

Which MIC (E. coli DH5α) does the source give for “PRT595 (CSCHASGVSPMECPPGGGACLCDPVTGACPCLPNVTGLACDRCADGYWNLVPGRGCQS; listed as Homo sapiens)” here?
The MIC was 12.5 µg/mL.

And the “MIC E. coli BL21” value (E. coli BL21; 96-well plate, 37° C., 10 h)?
The value was 50 µg/mL.

What about the “MIC P. aeruginosa” value (Pseudomonas aeruginosa; 96-well plate, 37° C., 10 h) of the same substance?
The value was 12.5 µg/mL.

What about the “MIC K. pneumonia” value (Klebsiella pneumonia; 96-well plate, 37° C., 10 h) of the same substance?
The value was 50 µg/mL.

What about the “MIC E. cloacae” value (Enterobacter cloacae; 96-well plate, 37° C., 10 h) of the same substance?
Its value is 12.5 µg/mL.

What about the “MIC A. hydrophila” value (Aeromonas hydrophila; 96-well plate, 37° C., 10 h) of the same substance?
The value was 50 µg/mL.

What about the “MIC C. diversus” value (Citrobacter diversus; 96-well plate, 37° C., 10 h) of the same substance?
The value was 12.5 µg/mL.

And the “MIC M. catarrhalis” value (Moraxella catarrhalis; 96-well plate, 37° C., 10 h)?
Its value is 50 µg/mL.

What about the “MIC P. mirabilis” value (Proteus mirabilis; 96-well plate, 37° C., 10 h) of the same substance?
The value was 12.5 µg/mL.

What about the “MIC P. vulgaris” value (Proteus vulgaris; 96-well plate, 37° C., 10 h) of the same substance?
Its value is 50 µg/mL.

And the “MIC S. marcescens” value (Serratia marcescens; 96-well plate, 37° C., 10 h)?
The value was 25 µg/mL.

With “PRT1424 (CQMFCNQTACPADCDPNTQASCECPEGYILDDGFICT; listed as Homo sapiens)” as the substance, how does the MIC (E. coli DH5α) read?
The MIC was 50 µg/mL.

What about the “MIC against E. coli BL21” value (E. coli BL21; [1]) of the same substance?
Its value is 12.5 µg/mL.

What about the “MIC against P. aeruginosa” value (Pseudomonas aeruginosa; Pseudomonas aeruginosa, 10 h cultivation at 37° C.) of the same substance?
Its value is 50 µg/mL.

And the “MIC against K. pneumonia” value (Klebsiella pneumonia; Klebsiella pneumonia, 10 h cultivation at 37° C.)?
The value was 12.5 µg/mL.

And the “MIC against E. cloacae” value (Enterobacter cloacae; Enterobacter cloacae, 10 h cultivation at 37° C.)?
The value was 50 µg/mL.

What about the “MIC against A. hydrophila” value (Aeromonas hydrophila; Aeromonas hydrophila, 10 h cultivation at 37° C.) of the same substance?
Its value is 12.5 µg/mL.

And the “MIC against C. diversus” value (Citrobacter diversus; Citrobacter diversus, 10 h cultivation at 37° C.)?
The value was 25 µg/mL.

What about the “MIC against M. catarrhalis” value (Moraxella catarrhalis; Moraxella catarrhalis, 10 h cultivation at 37° C.) of the same substance?
The value was 50 µg/mL.

What about the “MIC against P. mirabilis” value (Proteus mirabilis; Proteus mirabilis, 10 h cultivation at 37° C.) of the same substance?
The value was 25 µg/mL.

And the “MIC against P. vulgaris” value (Proteus vulgaris; Proteus vulgaris, 10 h cultivation at 37° C.)?
Its value is 12.5 µg/mL.

What about the “MIC against S. marcescens” value (Serratia marcescens; Serratia marcescens, 10 h cultivation at 37° C.) of the same substance?
The value was 25 µg/mL.
